Source: ChEMBL document CHEMBL4308841, “Synthesis, in vitro antiproliferative activity, and kinase inhibitory effects of pyrazole-containing diarylureas and diarylamides” (Eur J Med Chem, 2018)

Key:
HT-29 [1] = assay: Growth inhibition of human HT-29 cells assessed as cell growth at 10 uM incubated for 48 hrs by sulforhodamine B assay relative to control; format: functional; conditions: HT-29, 48 h, read-out: Activity
MOLT-4 = assay: Growth inhibition of human MOLT4 cells assessed as cell growth at 1 uM incubated for 48 hrs by sulforhodamine B assay relative to control; format: functional; conditions: MOLT-4, 48 h, read-out: Activity
SW-620 = assay: Growth inhibition of human SW620 cells assessed as cell growth at 1 uM incubated for 48 hrs by sulforhodamine B assay relative to control; format: functional; conditions: SW-620, 48 h, read-out: Activity
OVCAR-8 [2] = assay: Growth inhibition of human OVCAR8 cells incubated for 48 hrs by sulforhodamine B assay; format: functional, cell-based; conditions: OVCAR-8, 48 h
HT-29 [3] = assay: Growth inhibition of human HT-29 cells incubated for 48 hrs by sulforhodamine B assay; format: functional, cell-based; conditions: HT-29, 48 h
MDA-MB-435 = assay: Growth inhibition of human MDA-MB-435 cells assessed as cell growth at 1 uM incubated for 48 hrs by sulforhodamine B assay relative to control; format: functional; conditions: MDA-MB-435, 48 h, read-out: Activity
OVCAR-5 = assay: Growth inhibition of human OVCAR5 cells assessed as cell growth at 0.01 uM incubated for 48 hrs by sulforhodamine B assay relative to control; format: functional; conditions: OVCAR-5, 48 h, read-out: Activity
BT-549 [4] = assay: Growth inhibition of human BT549 cells incubated for 48 hrs by sulforhodamine B assay; format: functional, cell-based; conditions: BT-549, 48 h
HCT-15 [5] = assay: Growth inhibition of human HCT15 cells assessed as cell growth at 0.1 uM incubated for 48 hrs by sulforhodamine B assay relative to control; format: functional; conditions: HCT-15, 48 h, read-out: Activity
SK-MEL-28 = assay: Growth inhibition of human SK-MEL-28 cells assessed as cell growth at 0.01 uM incubated for 48 hrs by sulforhodamine B assay relative to control; format: functional; conditions: SK-MEL-28, 48 h, read-out: Activity
A549 = assay: Growth inhibition of human A549/ATCC cells assessed as cell growth at 0.01 uM incubated for 48 hrs by sulforhodamine B assay relative to control; format: functional; conditions: A549, 48 h, read-out: Activity
CCRF-CEM = assay: Growth inhibition of human CCRF-CEM cells incubated for 48 hrs by sulforhodamine B assay; format: functional, cell-based
MDA-MB-231 = assay: Growth inhibition of human MDA-MB-231 cells assessed as cell growth at 1 uM incubated for 48 hrs by sulforhodamine B assay relative to control; format: functional; conditions: MDA-MB-231, 48 h, read-out: Activity
SN12C [6] = assay: Growth inhibition of human SN12C cells assessed as cell growth at 0.01 uM incubated for 48 hrs by sulforhodamine B assay relative to control; format: functional; conditions: read-out: Activity
MDA-MB-468 = assay: Growth inhibition of human MDA-MB-468 cells assessed as cell growth at 0.01 uM incubated for 48 hrs by sulforhodamine B assay relative to control; format: functional; conditions: MDA-MB-468, 48 h, read-out: Activity
OVCAR-8 [7] = assay: Growth inhibition of human OVCAR8 cells assessed as cell growth at 0.1 uM incubated for 48 hrs by sulforhodamine B assay relative to control; format: functional; conditions: OVCAR-8, 48 h, read-out: Activity
A498 = assay: Growth inhibition of human A498 cells assessed as cell growth at 1 uM incubated for 48 hrs by sulforhodamine B assay relative to control; format: functional; conditions: A498, 48 h, read-out: Activity
RXF 393 = assay: Growth inhibition of human RXF393 cells assessed as cell growth at 1 uM incubated for 48 hrs by sulforhodamine B assay relative to control; format: functional; conditions: RXF 393, 48 h, read-out: Activity
SNB-75 = assay: Growth inhibition of human SNB75 cells assessed as cell growth at 1 uM incubated for 48 hrs by sulforhodamine B assay relative to control; format: functional; conditions: SNB-75, 48 h, read-out: Activity
HCT-15 [8] = assay: Growth inhibition of human HCT15 cells incubated for 48 hrs by sulforhodamine B assay; format: functional, cell-based; conditions: HCT-15, 48 h
SF-268 = assay: Growth inhibition of human SF268 cells assessed as cell growth at 0.01 uM incubated for 48 hrs by sulforhodamine B assay relative to control; format: functional; conditions: SF-268, 48 h, read-out: Activity
SN12C [9] = assay: Growth inhibition of human SN12C cells incubated for 48 hrs by sulforhodamine B assay; format: functional, cell-based
HT-29 [10] = assay: Growth inhibition of human HT-29 cells assessed as cell growth at 0.1 uM incubated for 48 hrs by sulforhodamine B assay relative to control; format: functional; conditions: HT-29, 48 h, read-out: Activity
NCI-H322M = assay: Growth inhibition of human NCI-H322M cells assessed as cell growth at 100 uM incubated for 48 hrs by sulforhodamine B assay relative to control; format: functional; conditions: read-out: Activity
UO-31 = assay: Growth inhibition of human UO31 cells assessed as cell growth at 0.1 uM incubated for 48 hrs by sulforhodamine B assay relative to control; format: functional; conditions: UO-31, 48 h, read-out: Activity
K562 = assay: Growth inhibition of human K562 cells assessed as cell growth at 0.1 uM incubated for 48 hrs by sulforhodamine B assay relative to control; format: functional; conditions: K562, 48 h, read-out: Activity
DU-145 = assay: Growth inhibition of human DU145 cells assessed as cell growth at 0.1 uM incubated for 48 hrs by sulforhodamine B assay relative to control; format: functional; conditions: DU-145, 48 h, read-out: Activity
BT-549 [11] = assay: Growth inhibition of human BT549 cells assessed as cell growth at 100 uM incubated for 48 hrs by sulforhodamine B assay relative to control; format: functional; conditions: BT-549, 48 h, read-out: Activity
[12] = read-out: LC50 (the source's name)
[13] = read-out: pLC50 (the source's name) (converted)

Q: `COc1cc(Cl)cc(-c2nn(-c3cccc(NC(=O)c4ccc(Cl)c(Cl)c4)c3)cc2-c2ccncc2)c1` was tested. Which growth at 10 µM (HT-29 [1]) did it give?
A: 56.4%

Q: For `O=C(Nc1cccc(-n2cc(-c3ccncc3)c(-c3cc(O)cc(Cl)c3)n2)c1)Nc1ccc(Cl)c(Cl)c1`, which growth at 1 µM (MOLT-4) is on record?
A: 84%

Q: What about the growth at 1 µM (SW-620) of the same compound?
A: 102%

Q: What about the GI50 (OVCAR-8 [2]; read-out: GI50) of the same compound?
A: 2.02 µM

Q: And the CC50 (OVCAR-8 [2]; [12])?
A: > 100 µM

Q: And the TGI (OVCAR-8 [2]; read-out: TGI)?
A: 50.6 µM

Q: And the GI50 (OVCAR-8 [2]; read-out: pGI50 (converted))?
A: 2 µM

Q: What about the CC50 (OVCAR-8 [2]; [13]) of the same compound?
A: > 100 µM

Q: What about the TGI (OVCAR-8 [2]; read-out: pTGI (converted)) of the same compound?
A: 5.01 µM

Q: What about the GI50 (HT-29 [3]; read-out: GI50) of the same compound?
A: 1.92 µM

Q: And the CC50 (HT-29 [3]; [12])?
A: 7.9 µM

Q: What about the TGI (HT-29 [3]; read-out: TGI) of the same compound?
A: 39 µM

Q: And the GI50 (HT-29 [3]; read-out: pGI50 (converted))?
A: 1.91 µM

Q: What about the CC50 (HT-29 [3]; [13]) of the same compound?
A: 7.94 µM

Q: What about the TGI (HT-29 [3]; read-out: pTGI (converted)) of the same compound?
A: 3.89 µM

Q: What about the growth at 1 µM (MDA-MB-435) of the same compound?
A: 79%

Q: What about the growth at 0.01 µM (OVCAR-5) of the same compound?
A: 53%

Q: What about the GI50 (BT-549 [4]; read-out: GI50) of the same compound?
A: 2.06 µM

Q: What about the CC50 (BT-549 [4]; [12]) of the same compound?
A: > 100 µM

Q: What about the TGI (BT-549 [4]; read-out: TGI) of the same compound?
A: 52.2 µM

Q: What about the GI50 (BT-549 [4]; read-out: pGI50 (converted)) of the same compound?
A: 2.04 µM

Q: And the CC50 (BT-549 [4]; [13])?
A: > 100 µM

Q: And the TGI (BT-549 [4]; read-out: pTGI (converted))?
A: 5.25 µM

Q: What about the growth at 0.1 µM (HCT-15 [5]) of the same compound?
A: 95%

Q: And the growth at 0.01 µM (SK-MEL-28)?
A: 108%

Q: And the growth at 0.01 µM (A549)?
A: 96%

Q: What about the GI50 (CCRF-CEM; read-out: GI50) of the same compound?
A: 2.12 µM

Q: What about the CC50 (CCRF-CEM; [12]) of the same compound?
A: > 100 µM

Q: And the GI50 (CCRF-CEM; read-out: pGI50 (converted))?
A: 2.14 µM

Q: And the CC50 (CCRF-CEM; [13])?
A: > 100 µM

Q: What about the growth at 1 µM (MDA-MB-231) of the same compound?
A: 50%

Q: What about the growth at 0.01 µM (SN12C [6]) of the same compound?
A: 100%

Q: And the growth at 0.01 µM (MDA-MB-468)?
A: 92%

Q: What about the growth at 0.1 µM (OVCAR-8 [7]) of the same compound?
A: 97%

Q: What about the growth at 1 µM (A498) of the same compound?
A: 75%

Q: What about the growth at 1 µM (RXF 393) of the same compound?
A: 38%

Q: And the growth at 1 µM (SNB-75)?
A: 63%

Q: What about the GI50 (HCT-15 [8]; read-out: GI50) of the same compound?
A: 2.1 µM

Q: What about the CC50 (HCT-15 [8]; [12]) of the same compound?
A: > 100 µM

Q: What about the TGI (HCT-15 [8]; read-out: TGI) of the same compound?
A: 80.4 µM

Q: And the GI50 (HCT-15 [8]; read-out: pGI50 (converted))?
A: 2.09 µM

Q: And the CC50 (HCT-15 [8]; [13])?
A: > 100 µM

Q: What about the TGI (HCT-15 [8]; read-out: pTGI (converted)) of the same compound?
A: 8.13 µM

Q: What about the growth at 0.01 µM (SF-268) of the same compound?
A: 94%

Q: And the GI50 (SN12C [9]; read-out: GI50)?
A: 2.78 µM

Q: And the LC50 (SN12C [9]; read-out: LC50)?
A: > 100 µM

Q: And the TGI (SN12C [9]; read-out: TGI)?
A: 10.1 µM

Q: And the GI50 (SN12C [9]; read-out: pGI50 (converted))?
A: 2.75 µM

Q: And the LC50 (SN12C [9]; read-out: pLC50 (converted))?
A: > 100 µM

Q: And the TGI (SN12C [9]; read-out: pTGI (converted))?
A: 18.2 µM

Q: What about the growth at 0.1 µM (HT-29 [10]) of the same compound?
A: 97%

Q: What about the growth at 100 µM (NCI-H322M) of the same compound?
A: -24%

Q: What about the growth at 0.1 µM (UO-31) of the same compound?
A: 93%

Q: And the growth at 0.1 µM (K562)?
A: 100%

Q: And the growth at 0.1 µM (DU-145)?
A: 104%

Q: And the growth at 100 µM (BT-549 [11])?
A: -38%
